Assay results: ChEMBL document CHEMBL4359817 (J Med Chem, 2019)
Values after ≈ are worked out from the molar mass of the structure shown.

Tests used:
[1] = Thermodynamic aqueous solubility of the compound at pH 7.4; format: physicochemical; settings: read-out: Therm_solubility
[2] = Lipophilicity, log D of the compound at pH 7.4; format: physicochemical; settings: buffer
[3] = Intrinsic clearance in human microsomes; format: ADME, Microsome
[4] = Intrinsic clearance in rat hepatocytes assessed per million cells; format: ADME, cell-based, Hepatocyte; settings: read-out: CLH
[5] = Clearance in Han Wistar rat at 1 mg/kg, po or 0.5 mg/kg, iv; format: ADME, organism-based; settings: in vivo
[6] = Volume of distribution at steady state in Han Wistar rat at 1 mg/kg, po or 0.5 mg/kg, iv; format: ADME, organism-based; settings: in vivo, read-out: Vdss
[7] = Oral bioavailability in Han Wistar rat at 1 mg/kg; format: ADME, organism-based; settings: in vivo
[8] = Clearance in Han Wistar rat at 2 mg/kg, po or 0.5 mg/kg, iv; format: ADME, organism-based; settings: in vivo
[9] = Volume of distribution at steady state in Han Wistar rat at 2 mg/kg, po or 0.5 mg/kg, iv; format: ADME, organism-based; settings: in vivo, read-out: Vdss
[10] = Oral bioavailability in Han Wistar rat at 2 mg/kg; format: ADME, organism-based; settings: in vivo
[11] = Intrinsic clearance in human hepatocytes assessed per million cells; format: ADME, cell-based, Hepatocyte; settings: read-out: CLH
[12] = Clearance in iv or po dosed Han Wistar rat; format: ADME, organism-based; settings: in vivo
[13] = Volume of distribution at steady state in iv or po dosed Han Wistar rat; format: ADME, organism-based; settings: in vivo, read-out: Vdss
[14] = Oral bioavailability in Han Wistar rat; format: ADME, organism-based; settings: in vivo
[15] = Thermodynamic aqueous solubility of the compound at pH 7.4 using amorphous form of sample; format: physicochemical; settings: read-out: Therm_solubility
[16] = Clearance in dog at 1 mg/kg, po or 0.5 mg/kg, iv; format: ADME, organism-based, Canis lupus familiaris; settings: in vivo
[17] = Oral bioavailability in dog at 1 mg/kg; format: ADME, organism-based, Canis lupus familiaris; settings: in vivo
[18] = Time at which plasma concentration stays above in vitro fGI50 for antiproliferative activity against human NCI-H1703 cells in nude mouse at 100 mg/kg, po; format: organism-based; settings: in vivo
[19] = Time at which plasma concentration stays above in vitro fGI50 for antiproliferative activity against human NCI-H1703 cells in SCID mouse at 100 mg/kg, po; format: organism-based; settings: in vivo
[20] = Time at which plasma concentration stays above in vitro fGI50 for antiproliferative activity against human NCI-H1703 cells in SCID mouse at 100 mg/kg, po administered twice daily; format: organism-based; settings: in vivo
[21] = Thermodynamic aqueous solubility of the compound at pH 7.4 using crystalline form of sample; format: physicochemical; settings: read-out: Therm_solubility
[22] = Volume of distribution at steady state in dog at 1 mg/kg, po or 0.5 mg/kg, iv; format: ADME, organism-based, Canis lupus familiaris; settings: in vivo, read-out: Vdss
[23] = Drug level in SCID mouse plasma xenografted with human NCI-H1703 cells at 100 mg/kg, po administered once daily via gavage for 21 days measured 4 hrs post-last dose; format: ADME, organism-based
[24] = Drug level in SCID mouse plasma xenografted with human NCI-H1703 cells at 100 mg/kg, po administered once daily via gavage for 21 days measured 24 hrs post-last dose; format: ADME, organism-based
[25] = Drug level in SCID mouse plasma xenografted with human NCI-H1703 cells assessed as free fraction at 100 mg/kg, po administered once daily via gavage for 21 days measured 4 hrs post-last dose; format: ADME, organism-based; settings: in vivo
[26] = Drug level in SCID mouse plasma xenografted with human NCI-H1703 cells assessed as free fraction at 100 mg/kg, po administered once daily via gavage for 21 days measured 24 hrs post-last dose; format: ADME, organism-based; settings: in vivo
[27] = Time at which plasma concentration stays above in vitro GI50 for antiproliferative activity against human NCI-H1703 cells in SCID mouse at 100 mg/kg, po; format: organism-based; settings: in vivo
[28] = Clearance in CD1 mouse at 100 mg/kg, po; format: ADME, organism-based; settings: in vivo

SMILES: O=C(Cc1ccccc1)Nc1nnc(N[C@@H]2CCN(c3nnc(NC(=O)Cc4ccccc4)s3)C2)s1
- solubility thermodynamic [1]: < 0.8 µM
- logD ([2]; read-out: logD): 3.8

SMILES: O=C(Cc1ccccc1)Nc1nnc(N[C@@H]2CCN(c3nnc(NC(=O)CC4CCOCC4)s3)C2)s1
- solubility thermodynamic [1]: 10 µM (≈ 5.29 µg/mL)
- logD ([2]; read-out: logD): 3.2

SMILES: O=C(Cc1ccccc1)Nc1nnc(N[C@@H]2CCC[C@H]2Nc2nnc(NC(=O)Cc3ccccc3)s2)s1
- logD ([2]; read-out: logD): 4.3

SMILES: Nc1nnc(N[C@@H]2CCN(c3ccc(NC(=O)Cc4ccccc4)nn3)C2)s1
- solubility thermodynamic [1]: 20 µM (≈ 7.93 µg/mL)
- logD ([2]; read-out: logD): 0.85

SMILES: O=C(Cc1ccccc1)Nc1nnc(CCCc2nnc(NC(=O)Cc3ccccc3)s2)s1
- solubility thermodynamic [1]: < 0.6 µM
- logD ([2]; read-out: logD): 3.6

SMILES: O=C(NCc1ccccc1)c1nnc(N[C@@H]2CCN(c3cccnn3)C2)s1
- solubility thermodynamic [1]: > 559 µM
- logD ([2]; read-out: logD): 2.24
- microsomal CLint [3]: < 3 µL/min/mg
- hepatocyte CLint [4]: 31 µL/min/1e6 cells
- clearance [5]: 100 mL/min/kg
- Vd [6]: 2.7 L/kg
- bioavailability [7]: 12%

SMILES: O=C(Cc1ccccc1)Nc1nnc(CCSCCc2nnc(NC(=O)Cc3ccccc3)s2)s1
- logD ([2]; read-out: logD): > 4

SMILES: O=C(Cc1ccccc1)Nc1nnc(N[C@@H]2CCN(c3nccnn3)C2)s1
- solubility thermodynamic [1]: 94 µM (≈ 36 µg/mL)
- logD ([2]; read-out: logD): 2.06
- microsomal CLint [3]: < 3 µL/min/mg
- hepatocyte CLint [4]: 5 µL/min/1e6 cells
- clearance [8]: 54 mL/min/kg
- Vd [9]: 2 L/kg
- bioavailability [10]: 83%

SMILES: CN1CCC(CC(=O)Nc2nnc(N3CC[C@@H](Nc4nnc(NC(=O)Cc5ccccc5)s4)C3)s2)CC1
- solubility thermodynamic [1]: 150 µM (≈ 81.3 µg/mL)
- logD ([2]; read-out: logD): 1.3

SMILES: O=C(Cc1cccc(OC(F)(F)F)c1)Nc1ccc(CCCCc2nnc(NC(=O)Cc3ccccn3)s2)nn1
- logD [2]: 3.9
- hepatocyte CLint [11]: 8 µL/min/1e6 cells
- microsomal CLint [3]: 15 µL/min/mg
- hepatocyte CLint [4]: 30.2 µL/min/1e6 cells
- clearance [12]: 14 mL/min/kg
- Vd [13]: 3 L/kg
- bioavailability [14]: 32%

SMILES: CC(=O)Nc1nnc(N2CC[C@@H](Nc3nnc(NC(=O)Cc4ccccc4)s3)C2)s1
- solubility thermodynamic [1]: 3 µM (≈ 1.33 µg/mL)
- logD ([2]; read-out: logD): 2.5

SMILES: O=C(Cc1ccccc1)Nc1nnc(NCCNc2nnc(NC(=O)Cc3ccccc3)s2)s1
- solubility thermodynamic [1]: < 3 µM

SMILES: CO[C@H](C(=O)Nc1nnc(N[C@@H]2CCN(c3nccnn3)C2)s1)c1ccccc1
- logD ([2]; read-out: logD): 1.7
- hepatocyte CLint [11]: 3 µL/min/1e6 cells
- microsomal CLint [3]: 3 µL/min/mg
- hepatocyte CLint [4]: 4.1 µL/min/1e6 cells
- clearance [12]: 12 mL/min/kg
- Vd [13]: 0.6 L/kg
- bioavailability [14]: 41%
- solubility thermodynamic [15]: 516 µM (≈ 213 µg/mL)
- clearance [16]: 1 mL/min/kg
- bioavailability [17]: 90%
- Time [18]: 24 h

SMILES: O=C(Cc1ccccc1)Nc1nnc(CCCCc2nnc(NC(=O)Cc3ccccc3)s2)s1
- solubility thermodynamic [1]: < 0.4 µM

SMILES: C[C@H](C(=O)Nc1nnc(N[C@@H]2CCN(c3cccnn3)C2)s1)c1ccccc1
- logD ([2]; read-out: logD): 2.6
- microsomal CLint [3]: < 3 µL/min/mg
- hepatocyte CLint [4]: 8.7 µL/min/1e6 cells
- clearance [12]: 55 mL/min/kg
- Vd [13]: 1.9 L/kg
- bioavailability [14]: 0%
- solubility thermodynamic [15]: 329 µM (≈ 130 µg/mL)
- Time [19]: 15 h
- Time [20]: 24 h

SMILES: O=C(Cc1ccccc1)Nc1nnc(NC[C@H]2CCN(c3nnc(NC(=O)Cc4ccccc4)s3)C2)s1
- solubility thermodynamic [1]: < 0.8 µM
- logD ([2]; read-out: logD): > 4.2

SMILES: O=C(Cc1ccccc1)Nc1nnc(N[C@@H]2CCN(c3nncs3)C2)s1
- solubility thermodynamic [1]: 130 µM (≈ 50.4 µg/mL)
- logD ([2]; read-out: logD): 2.1

SMILES: Nc1nnc(N[C@@H]2CCN(c3nnc(NC(=O)Cc4ccccc4)s3)C2)s1
- solubility thermodynamic [1]: 5 µM (≈ 2.01 µg/mL)
- logD ([2]; read-out: logD): 1.8

SMILES: O=C(NCc1ccccc1)c1nnc(N[C@@H]2CCN(c3nccnn3)C2)s1
- solubility thermodynamic [1]: > 228 µM
- logD ([2]; read-out: logD): 2.2
- microsomal CLint [3]: 3 µL/min/mg

SMILES: Nc1nnc(N2CC[C@@H](Nc3nnc(NC(=O)Cc4ccccc4)s3)C2)s1
- solubility thermodynamic [1]: 95 µM (≈ 38.2 µg/mL)
- logD ([2]; read-out: logD): 1.9

SMILES: O=C(Cc1ccccc1)Nc1nnc(CCCCCc2nnc(NC(=O)Cc3ccccc3)s2)s1
- solubility thermodynamic [1]: < 0.6 µM

SMILES: CN(CCN(C)c1nnc(NC(=O)Cc2ccccc2)s1)c1nnc(NC(=O)Cc2ccccc2)s1
- solubility thermodynamic [1]: < 1 µM
- logD ([2]; read-out: logD): 3.5

SMILES: CO[C@H](C(=O)Nc1nnc(N[C@@H]2CCN(c3cccnn3)C2)s1)c1ccccc1
- logD ([2]; read-out: logD): 1.9
- hepatocyte CLint [11]: < 1 µL/min/1e6 cells
- microsomal CLint [3]: < 3 µL/min/mg
- hepatocyte CLint [4]: 4.6 µL/min/1e6 cells
- clearance [12]: 35 mL/min/kg
- Vd [13]: 2.4 L/kg
- bioavailability [14]: 47%
- solubility thermodynamic [21]: 78 µM (≈ 32.1 µg/mL)
- clearance [16]: 4 mL/min/kg
- Vd [22]: 0.3 L/kg
- bioavailability [17]: 60%
- concentration at 4 h [23]: 3.57 µM
- concentration at 24 h [24]: 3.63 µM
- Cp(f) [25]: 0.582 µM
- Cp(f) [26]: 0.592 µM
- Time [19]: 24 h

SMILES: O=C(Cc1ccccc1)Nc1nnc(N[C@@H]2CCN(c3cccnn3)C2)s1
- solubility thermodynamic [1]: 14 µM (≈ 5.34 µg/mL)
- logD ([2]; read-out: logD): 2.2
- hepatocyte CLint [11]: < 1 µL/min/1e6 cells
- microsomal CLint [3]: 3 µL/min/mg
- hepatocyte CLint [4]: 2 µL/min/1e6 cells
- clearance [12]: 50 mL/min/kg
- Vd [13]: 1.6 L/kg
- bioavailability [14]: 2%
- Time [27]: 10 h
- CL/F [28]: 101 mL/min/kg

SMILES: CC(=O)N1CCCCC1CC(=O)Nc1nnc(N2CC[C@@H](Nc3nnc(NC(=O)Cc4ccccc4)s3)C2)s1 (some centres undefined)
- solubility thermodynamic [1]: 20 µM (≈ 11.4 µg/mL)
- logD ([2]; read-out: logD): 2.7
